Blank lines part the entries; values can stand above or below the compound they belong to.
Experiment: PEBCA pharmacokinetics and biodistribution study in rats (Cbz and metabolites by LC-MS/MS)
Type: in vivo, rat
Conditions: for detection of possible Cbz metabolite in samples: all tissue and serum samples after PEBCA, LC-MS/MS; for peak concentration ratio organ:blood, fold higher for Cbz than for IR780-oleyl: highest doses
Experimental: Male Wistar rats were purchased at 8 weeks of age from Janvier Labs (France). They were housed in groups of four in individually ventilated cages in a specific pathogen-free environment at 22–23 °C and 50–60% relative humidity, on a 12-h light/dark cycle and with 70 air changes per hour and free access to food and sterile water. They were fed RM1 expanded pellets (Special Diets Services, Essex, UK), and the cages were enriched with housing, nesting material and gnaw sticks. All institutional and national guidelines for the care and use of laboratory animals were followed. Experiments were performed in Norway.
During all experiments, the animals were anaesthetized by inhalation of 2–3% isoflurane (Baxter, Deerfield, IL, USA). Anaesthesia was maintained with isoflurane in 0.4 L/min O2 and 0.6 L/min N2O.
To perform the pharmacokinetics and biodistribution study, the animals were separated into 2 groups according to dose: • Low dose PEBCA-Cbz, 0.5 mg/kg Cbz (4.4 mg/kg NPs) • High dose PEBCA-Cbz, 3.5 mg/kg Cbz (30.5 mg/kg NPs)
Details about the treatment groups are available in Table 1. Before injection, the particles were diluted in 0.9% saline to a concentration that corresponded to an injection volume of 2 mL/kg. In addition to the treated animals, 6 sham-treated (injected with 0.9% saline 2 mL/kg) animals were used. The sham-treated animals were euthanized at 2, 4 and 14 days, two at each time point. Animals were injected intravenously once.
Blood samples on time points 1–30 min and 4 h (Table 2) were performed on conscious animals, and all other blood samples were collected during exsanguination. The leg of the animal was shaved to expose the saphenous vein. Petrolatum was applied to the shaved area and the saphenous vein was punctured using a 19G needle. Into tubes containing blood clotting activator, 300–500 µL blood was collected (Microvette 500 Serum, Sarstedt AG & Co. KG, Germany). The tubes were turned 3–4 times, left for 60 min in upright position at room temperature to allow clot formation before centrifugation at 10 000 rcf for 5 min. The serum was immediately transferred to new tubes and stored at − 80 °C until LC–MS/MS analysis.
Cbz was quantified by LC–MS/MS, using the same instrumentation and chromatographic column as described for IR-780-oleyl quantification above. […] The flow rate was constant at 0.5 mL/min and the injection volume was 1 µL. […] Similarly, Cbz-d6 and docetaxel-d5 internal standards were monitored at m/z 864.4 → 583.2 and 835.5 → 554.3, respectively.
7-Methyl-docetaxel was purchased from SynZeal Research (Moraiya, India, catalogue number SZ-D031010), 10-methyl-docetaxel from Eos Med Chem (Jinan, China, custom synthesis), docetaxel from Sigma (Fluka, product number 01885) and 7-epi-docetaxel from Santa Cruz Biotechnology (Dallas, USA, product number SC-210610).
The Cbz-d6 and docetaxel-d5 internal standards were purchased from Toronto Research Chemicals (Toronto, Canada, catalogue numbers C046502 and D494423, respectively). A mix of the two internal standards was added to all standards and samples to yield a final concentration of 50 ng/mL.

detection of possible Cbz metabolite in samples (rat): no 7-epi-docetaxel
SMILES: CC(=O)O[C@@]12CO[C@@H]1C[C@@H](O)[C@@]1(C)C(=O)[C@H](O)C3=C(C)[C@@H](OC(=O)[C@H](O)[C@@H](NC(=O)OC(C)(C)C)c4ccccc4)C[C@@](O)([C@@H](OC(=O)c4ccccc4)[C@H]21)C3(C)C [7-epi-docetaxel]

SMILES: CO[C@H]1C[C@H]2OC[C@@]2(OC(C)=O)[C@H]2[C@H](OC(=O)c3ccccc3)[C@]3(O)C[C@H](OC(=O)[C@H](O)[C@@H](NC(=O)OC(C)(C)C)c4ccccc4)C(C)=C([C@@H](O)C(=O)[C@]12C)C3(C)C [7-methyl-docetaxel]
detection of possible Cbz metabolite in samples (rat): No 7-methyl-docetaxel was observed in any sample

metabolite concentration in brain (Cbz metabolites after PEBCA, even at high dose administered, rat, negligible): 0.2 ng/g
metabolite concentration in serum relative to Cbz in the same sample (after PEBCA, rat serum, found only up to the 15-min sampling point): ≤ 0.5%
SMILES: CO[C@H]1C(=O)[C@@]2(C)[C@H]([C@H](OC(=O)c3ccccc3)[C@]3(O)C[C@H](OC(=O)[C@H](O)[C@@H](NC(=O)OC(C)(C)C)c4ccccc4)C(C)=C1C3(C)C)[C@]1(OC(C)=O)CO[C@@H]1C[C@@H]2O [10-m-Doc, 10-methyl-docetaxel]

sampling point at which the organ:blood ratio reaches its peak (Cbz after PEBCA, in most cases, rat): 24 h
dose response (concentration ratio normalized to injected dose) (Cbz after PEBCA, majority of organs and time points, rat): > 1
dose response (concentration ratio normalized to injected dose) (Cbz after PEBCA, serum, rat): < 1
Lung Cmax (Cbz measured after PEBCA high dose, 3.5 mg/kg Cbz (30.5 mg/kg NPs) i.v., rat, n = 4): 7593 ng/g
measured concentration ratio all organs vs. blood, fold higher for cabazitaxel as compared to IR780-oleyl (all organs, rat (abstract)): more than 50 fold
peak concentration ratio organ:blood, fold higher for Cbz than for IR780-oleyl (all tissues except liver, rat): at least 100 fold
peak concentration ratio organ:blood, fold higher for Cbz than for IR780-oleyl (liver, rat): about 50 fold
decrease in serum concentration of Cbz (within the first 4 h after PEBCA injection, rat serum): ~100 fold
SMILES: CO[C@H]1C(=O)[C@]2(C)[C@@H](OC)C[C@H]3OC[C@@]3(OC(C)=O)[C@H]2[C@H](OC(=O)c2ccccc2)[C@]2(O)C[C@H](OC(=O)[C@H](O)[C@@H](NC(=O)OC(C)(C)C)c3ccccc3)C(C)=C1C2(C)C [Cbz, cabazitaxel]

Reference: PMC9012159, “A comparative biodistribution study of polymeric and lipid-based nanoparticles” (Drug Delivery and Translational Research, 2022)
